From PubChem BioAssay (NCI)
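Growth conditions: 96-well plates. Treatment: test compound, 48 hours, 5 concentrations. Analysis: linear interpolation between bracketing concentrations; unreached endpoints set to highest concentration. TGI: total growth inhibition.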 Where a SMILES comes first, the peptide text is derived from it. [ ]: non-standard residue; d: D form. The star is where a group is joined. ξ: configuration not given here. dThr(3ξ) = CC(O)[C@@H](N)C(=O)O; dNMeL = CN[C@H](CC(C)C)C(=O)O; OBn = c1ccc(CO*)cc1; ξLac = CC(O)C(=O)O

Legend:
Assay in all cases: NCI anticancer screen, dose series, 48 h
RPMI-8226 leukemia = system: RPMI-8226 leukemia
SNB-75 CNS = system: SNB-75 CNS
OVCAR-5 ovarian = system: OVCAR-5 ovarian
NCI-H23 lung = system: NCI-H23 lung
U251 CNS = system: U251 CNS
DU-145 prostate = system: DU-145 prostate
NCI/ADR-RES ovarian = system: NCI/ADR-RES ovarian
SF-295 CNS = system: SF-295 CNS
CCRF-CEM leukemia = system: CCRF-CEM leukemia
NCI-H460 lung = system: NCI-H460 lung
SNB-19 CNS = system: SNB-19 CNS
HS 578T breast = system: HS 578T breast
SK-MEL-28 melanoma = system: SK-MEL-28 melanoma
SF-268 CNS = system: SF-268 CNS
KM12 colon = system: KM12 colon
SW-620 colon = system: SW-620 colon
HL-60(TB) leukemia = system: HL-60(TB) leukemia
TK-10 renal = system: TK-10 renal
EKVX NSCLC = system: EKVX NSCLC

Row | SMILES | TGI (RPMI-8226 leukemia) [µM] | TGI (SNB-75 CNS) [µM] | TGI (OVCAR-5 ovarian) [µM] | TGI (NCI-H23 lung) [µM] | TGI (U251 CNS) [µM] | TGI (DU-145 prostate) [µM] | TGI (NCI/ADR-RES ovarian) [µM] | TGI (SF-295 CNS) [µM] | TGI (CCRF-CEM leukemia) [µM] | TGI (NCI-H460 lung) [µM] | TGI (SNB-19 CNS) [µM] | TGI (HS 578T breast) [µM] | TGI (SK-MEL-28 melanoma) [µM] | TGI (SF-268 CNS) [µM] | TGI (KM12 colon) [µM] | TGI (SW-620 colon) [µM] | TGI (HL-60(TB) leukemia) [µM] | TGI (TK-10 renal) [µM] | TGI (EKVX NSCLC) [µM]
1 | N#CC1=C(S)N(C2OC(CO)C(O)C(O)C2O)C(c2ccccc2)=CC1c1ccccc1 (stereo not drawn) | > 100 | > 100 | > 100 | > 100 | > 100 | > 100 | > 100 | > 100 | > 100 | > 100 | > 100 | > 100 | > 100 | > 100 | > 100 | > 100 | > 100 | > 100 | –
2 | CC(=O)OC(C)[C@@H](NC(=O)[C@@H](CC(C)C)N(C)C(=O)[C@@H]1CCCN1C(=O)C(C)O)C(=O)OCc1ccccc1 (stereo partly drawn) (H-[ξLac]P[dNMeL][dThr(3ξ)](Ac)-OBn) | > 100 | > 100 | > 100 | > 100 | > 100 | > 100 | > 100 | > 100 | > 100 | > 100 | > 100 | > 100 | > 100 | > 100 | > 100 | > 100 | > 100 | > 100 | > 100
3 | CC(C)[Si](OC1=C(C(=O)Nc2ccccc2Cl)CCCCC1)(C(C)C)C(C)C | > 100 | > 100 | > 100 | > 100 | > 100 | > 100 | > 100 | > 100 | 12.3 | > 100 | > 100 | > 100 | > 100 | > 100 | > 100 | > 100 | 13.4 | > 100 | > 100
4 | CCOC(=O)c1nc2ccccc2nc1NCc1ccc(OC)cc1 | > 100 | > 100 | > 100 | > 100 | > 100 | > 100 | > 100 | > 100 | > 100 | > 100 | – | > 100 | > 100 | > 100 | > 100 | > 100 | > 100 | > 100 | > 100
5 | COC(=O)c1ccc(N=NN(C)COc2ccc(C#N)cc2)cc1 | > 100 | > 100 | > 100 | > 100 | > 100 | > 100 | > 100 | > 100 | > 100 | > 100 | > 100 | > 100 | > 100 | > 100 | > 100 | > 100 | 50.4 | > 100 | > 100
6 | O=CN1CCN(C(=O)c2cc(Cl)cc(Cl)c2)C1=S | 5.64 | 27 | 44.2 | 32.5 | 36 | 37.5 | 80.7 | 36 | 25.5 | 51.2 | 35 | 71.4 | 39.2 | 30.6 | 29.8 | 49.3 | 29.7 | 28.7 | 32.3
7 | COC1=NC(NC2OCC(O)C(O)C2O)=C(NC(C)=O)CN1C (stereo not drawn) | > 100 | > 100 | > 100 | > 100 | – | > 100 | > 100 | > 100 | > 100 | > 100 | > 100 | > 100 | > 100 | > 100 | > 100 | > 100 | > 100 | > 100 | > 100
8 | CC(C)OCC(O)COc1ccc2ccc(=O)oc2c1 (stereo not drawn) | > 100 | > 100 | > 100 | > 100 | > 100 | > 100 | > 100 | > 100 | > 100 | > 100 | > 100 | > 100 | > 100 | > 100 | > 100 | > 100 | > 100 | > 100 | > 100
9 | OC(c1cccnc1)C(F)(F)c1nc2ccccc2o1 (stereo not drawn) | > 100 | > 100 | – | > 100 | > 100 | > 100 | > 100 | – | > 100 | > 100 | > 100 | > 100 | > 100 | > 100 | > 100 | > 100 | > 100 | > 100 | > 100
10 | O=C(O)C1(C(=O)O)CC1(C(=O)O)C(=O)O | – | > 100 | > 100 | > 100 | > 100 | > 100 | > 100 | > 100 | > 100 | > 100 | > 100 | > 100 | > 100 | > 100 | > 100 | > 100 | > 100 | > 100 | > 100
11 | Cc1cc2c(cc1Cl)SC(N/N=C(\N)c1ccc(Cl)cc1)=NS2(=O)=O | – | > 100 | > 100 | > 100 | > 100 | > 100 | > 100 | > 100 | > 100 | > 100 | > 100 | > 100 | > 100 | > 100 | > 100 | > 100 | > 100 | > 100 | > 100
12 | CN(/N=C/c1cccs1)c1ccc(Cl)cc1[N+](=O)[O-] | > 100 | > 100 | – | > 100 | 59.5 | > 100 | 66.7 | > 100 | 73.2 | > 100 | > 100 | 76.2 | > 100 | > 100 | > 100 | > 100 | 54.1 | > 100 | > 100
13 | COC(=O)C1=NN2c3ccccc3C(=O)OCCC2(C)C1 (stereo not drawn) | > 100 | > 100 | > 100 | > 100 | > 100 | > 100 | > 100 | > 100 | > 100 | > 100 | – | > 100 | > 100 | > 100 | > 100 | > 100 | > 100 | > 100 | > 100
